In PMC9221018, “Sulfonamide-Derived Dithiocarbamate Gold(I) Complexes Induce the Apoptosis of Colon Cancer Cells by the Activation of Caspase 3 and Redox Imbalance” (Biomedicines, 2022):
Where two headings read alike, the source gives them in different places.

Key:
[1] = n-octanol-water distribution coefficient, shake-flask method; format: physicochemical; details: n-octanol/buffered saline pH 7.4, shake-flask
Procedure: The n-octanol−water coefficients of the complexes were determined using a shake-flask method, as reported previously. Briefly, 100 mL buffered-saline (0.15 M NaCl, 10 mM phosphate [PO4^3−] buffer, pH 7.4) and 100 mL n-octanol were shaken for 72 h. The addition of 1 mg of the complexes followed by the centrifugation and separation of both phases gave two solutions, which were analysed by UV absorbance spectroscopy to determine their concentration in each phase. The corresponding value of log P was defined as log{[compound(organic)]/[compound(aqueous)]}.

[2] = tested on: Caco-2 cells; assay: MTT cytotoxicity assay in undifferentiated Caco-2 cells; format: cell-based, human
Procedure: (§1) The human Caco-2 cell line (TC7 clone) was kindly provided by Dr. Edith Brot-Laroche (Université Pierre et Marie Curie-Paris 6, UMR S 872, Les Cordeliers, France). Human epithelial fibroblast cells (NHDF-Ad, Lonza®®, Porriño, Spain) were kindly provided by Dr. Gracia Mendoza (Aragon Health Research Institute, IIS Aragón, Spain). Caco-2 cells (passages 40–70) and fibroblasts (passages 10–30) were maintained in a humidified atmosphere of 5% CO2 at 37 °C and grown in medium following the method used by Quero et al.. The Caco-2 cells were sub-cultured in 25 cm^2 plastic flasks at a density of 1.2 × 10^4 cells/cm^2, while the fibroblasts were sub-cultured on 75 cm^2 plastic flasks at a density of 1 × 10^4 cells/cm^2. The culture medium was replaced every 2 days.
(§2) The gold complexes were diluted in dimethyl sulfoxide (DMSO) as a 10 mM stock solution, and then diluted in cell culture medium at the desired concentrations.
(§3) For the cytotoxicity screening assays, Caco-2 cells were seeded in 96-well plates at a density of 4 × 10^3 cells/well. The culture medium was replaced with medium containing the drug panel 24 h post-seeding, and the cells were incubated for 24, 48 and 72 h. […] In differentiated Caco-2 and fibroblasts, culture medium containing metal gold complexes was added 15 days post-seeding, and the cells were incubated for 72 h. The antiproliferative effect was measured using an MTT assay, as previously described by Mármol et al.. The absorbance at 540/620 nm was measured using a SPECTROstar Nano (BMG Labtech, Ortenberg, Germany). In order to determine the selectivity index (SI), the IC50 value of the differentiated Caco-2 cells was divided by IC50 value in undifferentiated Caco-2, obtaining the ratio of the normal/cancerous cells’ toxicity.

[3] = tested on: differentiated Caco-2 cells; assay: MTT cytotoxicity assay in differentiated Caco-2 cells (healthy cell model); format: cell-based, human; details: for decrease of cell viability: complexes at their IC50 (1 1.14 μM, 3 1.7 μM, 8 7.22 μM, 9 8.56 μM), 72 h; for IC50: treatment for 72 h
Procedure: as §1, §2, §3

[4] = tested on: Human epithelial fibroblast cells (NHDF-Ad); assay: MTT viability assay in human epithelial fibroblasts; format: cell-based; details: complexes at their IC50 (1 1.14 μM, 3 1.7 μM, 8 7.22 μM, 9 8.56 μM), 72 h
Procedure: as §1, §2, §3

[5] = treatment for 72 h, read-out: IC50
[6] = 24 h incubation, read-out: IC50 24 h
[7] = 48 h incubation, read-out: IC50 48 h
[8] = 72 h incubation, read-out: IC50 72 h

## Cc1ccc(S(=O)(=O)NC(=S)[S][Au][PH](c2cccc(S(=O)(=O)[O-])c2)(c2cccc(S(=O)(=O)[O-])c2)c2cccc(S(=O)(=O)[O-])c2)cc1.[Na+].[Na+].[Na+] [Complex 5, [Au(S2CNHSO2-p-Me-C6H4)(TPPTS)]]
[1]
  Log P7.4: −0.78
[2]; [5]
  IC50: 31.8 ± 6.05 µM

## C#CCn1ccn(C)[c]1=[Au-].O=S(=O)(NC(=S)[S-])c1ccccc1 [Complex 7, [Au(S2CNHSO2C6H5)(IMePropargyl)]]
[1]
  Log P7.4: 0.35
[2]; [5]
  IC50: 33.3 ± 5.01 µM

## C#CCn1ccn(Cc2ccccc2)[c]1=[Au-].O=S(=O)(NC(=S)[S-])c1ccccc1 [Complex 9, [Au(S2CNHSO2C6H5)(IBnPropargyl)]]
[1]
  Log P7.4: 0.42
[3]
  decrease of cell viability: approximately 39%
  IC50: 19.5 ± 2.64 µM
[4]
  decrease of cell viability: approximately 39%
[2]; [6]
  IC50: 31.2 ± 6.85 µM
[2]; [7]
  IC50: 15.5 ± 1.89 µM
[2]; [8]
  IC50: 8.56 ± 1.68 µM
[2]; [5]
  IC50: 8.56 ± 1.68 µM

## [Au(S2CNHSO2-p-Cl-C6H4)(PPh3)] [Complex 3]
[1]
  Log P7.4: 0.91
[3]
  decrease of cell viability: did not compromise the viability
  IC50: 14.3 ± 0.19 µM
[4]
  decrease of cell viability: did not compromise the viability
[2]; [6]
  IC50: 2.48 ± 0.14 µM
[2]; [7]
  IC50: 1.51 ± 0.1 µM
[2]; [8]
  IC50: 1.7 ± 0.15 µM
[2]; [5]
  IC50: 1.7 ± 0.15 µM

## [Au(S2CNHSO2-p-Cl-C6H4)(TPPTS)] [Complex 6]
[1]
  Log P7.4: −0.83
[2]; [5]
  IC50: 33.7 ± 2.74 µM

## [Au(S2CNHSO2-p-Me-C6H4)(IBnPropargyl)] [Complex 10]
[2]; [5]
  IC50: 13.2 ± 3.34 µM

## [Au(S2CNHSO2-p-Me-C6H4)(PPh3)] [Complex 2]
[1]
  Log P7.4: 0.71
[2]; [5]
  IC50: 1.25 ± 0.35 µM

## [Au(S2CNHSO2C6H5)(TPPTS)] [Complex 4]
[1]
  Log P7.4: −0.40
[2]; [5]
  IC50: 46.7 ± 5.61 µM
